# Assay: Inhibition of potato tuber 5LOX by polarographic method
# Set-up: species or system Solanum tuberosum
row,Structure (SMILES),IC50 [nM]
1,CCN(C)C(=O)c1cc(C(C)(C)C)c2c(c1)C(C)(C)CO2,22000
2,O=C1NCCN(c2cccc([N+](=O)[O-])c2)N1,49000
3,CC1CN(c2cccc(Cl)c2)NC(=O)N1 (centres undefined),2700
4,O=C1NCCN(c2cccc(F)c2)N1,19000
5,O=C1NCCN(c2ccccn2)N1,26000
6,CSc1cccc(N2CCNC(=O)N2)c1,14000
7,Cc1cccc(N2CCNC(=O)N2)c1,15000
8,COCCOCC1CN(c2ccccc2)NC(=O)N1 (centres undefined),14000
9,Nc1cccc(N2CCNC(=O)N2)c1,178000
10,CC(C)(C)c1cc(C(=O)CCCC2CC2)cc2c1OCC2(C)C,68000
11,CCCC(=O)c1cc(C(C)(C)C)c2c(c1)C(C)(C)CO2,8500
12,CC(C)(C)c1cc(C(=O)CCCC2CC2)cc2c1OCCC2(C)C,8000
13,NS(=O)(=O)c1ccc(N2N=C(C(F)(F)F)CC2c2c[nH]c3ccccc23)cc1 (centres undefined),41000
14,CC1(C)Cc2c(-c3ccccc3)c(-c3ccc([N+](=O)[O-])cc3)c(CC(=O)O)n2C1,1500
15,O=C(O)Cc1c(-c2ccc(Cl)cc2)c(-c2ccccc2)c2n1CCC2,1600
16,CCN1CC/C(=C/c2cc(C(C)(C)C)c(O)c(C(C)(C)C)c2)S1(=O)=O,2500
17,Cc1cc(C)cc(N2CCNC(=O)N2)c1,12000
18,COc1cccc(N2CC(C)NC(=O)N2)n1 (centres undefined),5500
19,O=C1NCCN(c2ccccc2)N1,21000
20,CCCCC1CN(c2ccccc2)NC(=O)N1 (centres undefined),1500
21,NS(=O)(=O)c1ccc(C#Cc2ccc(=O)n(C(F)F)c2)cc1,3500
22,NS(=O)(=O)c1ccc(-n2nc(C(F)(F)F)cc2-c2ccn(O)c(=O)c2)cc1,4900
23,NS(=O)(=O)c1cccc(C#Cc2ccc(=O)n(O)c2)c1,15000

row,Structure (SMILES),IC50 [nM]
1,COc1ccc(-c2cnsc2-c2ccc(OC)cc2)cc1,20000
2,CS(=O)(=O)c1ccc(C#Cc2ccc(=O)n(C(F)F)c2)cc1,3300
3,CS(=O)(=O)c1cccc(C#Cc2ccc(=O)n(C(F)F)c2)c1,3200
4,CCOC(=O)c1c(Cc2cccc(Cl)c2)[nH]c2cc(-c3ccccc3)c(O)cc12,1200
5,NS(=O)(=O)c1ccccc1C#Cc1ccc(=O)n(O)c1,10000
6,COc1ccc(-c2ssc(=S)c2-c2ccc(OC)cc2)cc1,10000
7,Cc1ccc(-c2c(-c3ccc(S(C)(=O)=O)cc3)ssc2=S)cc1,9000
8,CCOC(=O)c1c(Cc2cccc(Cl)c2)[nH]c2ccc(O)cc12,2000
9,NS(=O)(=O)c1ccc(C#Cc2ccc(=O)n(O)c2)cc1,68000
10,COc1ccc(-c2sncc2-c2ccc(C)cc2)cc1,8000
11,CS(=O)(=O)c1ccccc1C#Cc1ccc(=O)n(C(F)F)c1,3400
12,O=C1NCCN(c2ccoc2-c2ccccc2)N1,4900
13,O=C1NCCN(c2ncccc2-c2cccs2)N1,8200
14,O=C1NCCN(c2cccnc2-c2ccccc2)N1,30000
15,Cc1ccc(-c2c(-c3ccc(S(C)(=O)=O)cc3)cn3c2CCC3)cc1,10000
16,CC1(C)CCC[C@@]2(C)C1CCC(C=O)[C@@H]2CC=C(C=O)C=O (some centres undefined),7500
17,CC(C)(C)c1cc(C(=O)CCCC#N)cc2c1OCC2(C)C,6000
18,O=C(CCCC1=CCc2ccccc21)N1CCOCC1,2060
19,CC(C)(C)c1cc(Cc2cccs2)cc2c1OCC2(C)C,68000
20,O=C(O)/C=C/c1ccc(O)c(O)c1 [CAFFEIC ACID],4000
21,Cc1ccc(-c2cc(C(F)(F)F)nn2-c2ccc(S(N)(=O)=O)cc2)cc1 [CELECOXIB],10000
22,CS(=O)(=O)Nc1ccc([N+](=O)[O-])cc1OC1CCCCC1 [NS-398],10000
23,C#CCCCC(=O)c1cc(C(C)(C)C)c(O)c(C(C)(C)C)c1 [TEBUFELONE],3000

# Compounds with a lower IC50, results first:
row,IC50 [nM],Structure (SMILES)
1,14,COC1(c2cccc(COc3ccc4c(-c5ccccc5)c5c(cc4c3)C(=O)OC5)c2)CCOCC1
2,40,COc1ccc(C(=O)/C=C/c2ccc(O)c(O)c2)c(OC)c1
3,23,CC1Cc2c(OCc3ccc(-c4ccccc4)cn3)ccc3c2c(c(CCOc2ccccc2CC(=O)O)n3Cc2cccc(F)c2)S1 (centres undefined)
4,1000,CS(=O)(=O)c1ccc(C#CC(=O)c2ccccc2)cc1
5,140,Cc1nccn1-c1ccc(Sc2cccc(C3(C(N)=O)CCOCC3)c2)cc1
6,770,FC(F)(F)c1cccc(Nc2ccccc2-c2n[nH]c(=S)o2)c1
7,770,FC(F)(F)c1cccc(Nc2ccccc2-c2n[nH]c(=S)s2)c1
8,300,CS(=O)(=O)c1ccc(C#CC(=O)c2cccc(O)c2)cc1
9,850,COC1(c2cc(F)cc(OCCc3c[nH]c4ccccc34)c2)CCOCC1
10,3,COC1(c2cc(F)cc(OCc3cc(-c4ccccc4)n(-c4ccc(S(C)(=O)=O)cc4)n3)c2)CCOCC1
11,400,COc1ccc2c(c1)c(CCN(O)C(N)=O)c(C)n2C(=O)c1ccc(Cl)cc1
12,350,CS(=O)(=O)c1ccc(-n2nc(C(F)(F)F)cc2-c2ccn(O)c(=O)c2)cc1
13,150,CCOC(=O)c1c(Cc2ccc(OC)cc2)[nH]c2c1cc(O)c1ccccc12
14,300,COC(=O)c1c(Nc2cccc(Cl)c2)[nH]c2ccc(O)cc12
15,16,CC1Cc2c(CCc3ccc(-c4ccccc4)cn3)ccc3c2C(S1)C(CC(C)(C)Cc1nnn[nH]1)N3Cc1ccc(Cl)cc1 (centres undefined)
16,36,CC1Cc2c(OCc3ccc(-c4ccccc4)cn3)ccc3c2C(S1)C(CC(C)(C)CC(=O)NS(C)(=O)=O)N3Cc1ccc(Cl)cc1 (centres undefined)
17,130,CS(=O)(=O)Nc1ccc(Oc2ccc(F)cc2)s1

row,IC50 [nM],Structure (SMILES)
1,370,COc1cc(/C=C\C=C\c2nc3ncccc3o2)ccc1O
2,740,CC(C)(C)OC(=O)N1CCN(C(=O)CCCC2=CCc3ccccc32)CC1
3,20,CCOC(=O)c1ccc2oc(/C=C/C=C\c3ccc(O)c(O)c3)nc2c1
4,270,NC(=O)C1(c2cccc(Sc3ccc(-n4cccc4)cc3)c2)CCOCC1
5,870,O=C(CC1=CC(Cc2ccc(Cl)c(Cl)c2)c2ccccc21)N1CCOCC1 (centres undefined)
6,950,CC1=C(CCCC(=O)N2CCOCC2)c2cc(Cl)ccc2C1Cc1ccccc1 (centres undefined)
7,570,COC1(c2cc(F)cc(OCC3=NN(c4ccccc4)C(c4ccccc4)C3)c2)CCOCC1 (centres undefined)
8,330,COc1cc(/C=C\C=C\c2nc3ccccc3o2)ccc1O
9,130,CCOC(=O)c1ccc2nc(/C=C/C=C\c3ccc(O)c(OC)c3)oc2c1
10,150,COc1cc(O)cc(/C=C/C=C/C(=O)NCCN2CCC(OC(c3ccccc3)c3ccccc3)CC2)c1
11,300,COc1cc(/C=C\C=C\c2nc3ccc(CO)cc3o2)ccc1O
12,110,CC(=O)Nc1ccc(/C(=C/c2ccc(S(C)(=O)=O)cc2)C(=O)O)cc1
13,10,COC1(c2cccc(OCc3ccc4ccccc4c3)c2)CCOCC1
14,15,N#Cc1cc(-c2ccoc2)c2ccc(OCc3cccc(C4(O)CCOCC4)n3)cc2c1
15,180,CC1(C)Cc2c(-c3ccccc3)c(-c3ccc(Cl)cc3)c(CC(=O)O)n2C1 [LICOFELONE]
16,330,COC1(c2cc(F)cc(OCc3ccc4c(ccc(=O)n4C)c3)c2)CCOCC1 [ZD-2138]
